Assays:
Assay type in all cases: in vitro ADME
[1] = Metabolic stability in rat liver microsomes (in vitro t1/2); settings: rat liver microsomes 0.5 mg/mL, 2 μM compound; for Rat microsome % 60 min: % remaining at 60 min
Experimental: (§1) Metabolic Stability Assays The following are assays that may be used to evaluate the metabolic stability of compounds of Formula (I) in human, rat, or mouse microsomes. The assays follow a common procedure recited below. 1. […] Two separated experiments were performed as follows. a) With NADPH: 10 μL of 20 mg/mL liver microsomes and 40 μL of 10 mM NADPH were added to the incubations. […] The final concentration of microsomes was 0.5 mg/mL. 3. The reaction was started with the addition of 4 μL of 200 μM control compound or test compound solutions. Verapamil was used as positive control in this study. The final concentration of test compound or control compound was 2 μM. 4. Aliquots of 50 μL were taken from the reaction solution at 0, 15, 30, 45 and 60 min. […] Samples were centrifuged at 3,220 g for 40 minutes. A 90 μL aliquot of the supernatant was mixed with 90 μL of ultra-pure H2O and then used for LC-MS/MS analysis. 5. Data analysis. All calculations were carried out using Microsoft Excel. Peak areas were determined from extracted ion chromatograms. The slope value, k, was determined by linear regression of the natural logarithm of the remaining percentage of the parent drug vs. incubation time curve. The in vitro half-life (in vitro t1/2) was determined from the slope value: in vitro t1/2=−(0.693)/k.

[2] = Metabolic stability in human liver microsomes (in vitro t1/2); settings: human liver microsomes 0.5 mg/mL, 2 μM compound; for Human microsome % 60 min: % remaining at 60 min
Experimental: as §1

[3] = Metabolic stability in mouse liver microsomes (in vitro t1/2); settings: mouse liver microsomes 0.5 mg/mL, 2 μM compound, % remaining at 60 min
Experimental: as §1

| Structure (SMILES) | Rat microsome % 60 min [1] | Human microsome % 60 min [2] | Mouse microsome % 60 min [3] | Human microsome t1/2, min ([2]; in vitro t1/2) | Rat microsome t1/2, min ([1]; in vitro t1/2) |
| --- | --- | --- | --- | --- | --- |
| CCn1ncc2ccc(-c3cc(COC(C)(C)C(=O)O)nn3-c3ccccc3Cl)cc21 [Example 157, 2-([1-(2-chlorophenyl)-5-(1-ethyl-1H-indazol-6-yl)-1H-pyrazol-3-yl]methoxy)-2-methylpropanoic acid] | 97% | 78% | – | – | – |
| CC(C)(OCc1cc(-c2cccc(OC3CC3)c2)n(-c2ccc(F)cc2N2CCC2)n1)C(=O)O [Example 183, 2-([1-[2-(Azetidin-1-yl)-4-fluorophenyl]-5-(3-cyclopropoxyphenyl)-1H-pyrazol-3-yl]methoxy)-2-methylpropanoic acid] | 71% | 66% | 73% | – | – |
| COc1csc(-c2cc(COC(C)(C)C(=O)O)nn2Cc2ccccc2Cl)c1 [Example 65, 2-([1-[(2-Chlorophenyl)methyl]-5-(4-methoxythien-2-yl)-1H-pyrazol-3-yl]methoxy)-2-methylpropanoic acid] | – | 78% | 92% | – | – |
| CC(C)(OCc1cc(-c2cccc(OC3CC3)c2)n(-c2ccccc2N2CCCC2)n1)C(=O)O [Example 221, 2-([5-(3-Cyclopropoxyphenyl)-1-[2-(pyrrolidin-1-yl)phenyl]-1H-pyrazol-3-yl]methoxy)-2-methylpropanoic acid] | 33% | 56% | 34% | – | – |
| CC(C)(OCc1cc(-c2cccc(OC3CC3)c2)n(Cc2ccccc2Cl)n1)C(=O)O [Example 39, 2-([1-[(2-Chlorophenyl)methyl]-5-[3-(cyclopropoxy)phenyl]1H-pyrazol-3-yl]methoxy)-2-methylpropanoic acid] | – | 89% | 88% | – | – |
| Cc1ccccc1-n1nc(COC(C)(C)C(=O)O)cc1-c1cccc(OC2CC2)c1 [Example 188, 2-([5-(3-Cyclopropoxyphenyl)-1-(2-methylphenyl)-1H-pyrazol-3-yl]-methoxy)-2-methylpropanoic acid] | 87% | – | 92% | ∞ | – |
| CCOc1ccccc1Cn1nc(COC(C)(C)C(=O)O)cc1-c1cccc(OC2CC2)c1 [Example 201, 2-([5-(3-Cyclopropoxyphenyl)-1-[(2-ethoxyphenyl)methyl]-1H-pyrazol-3-yl]-methoxy)-2-methylpropanoic acid] | 39% | 58% | 58% | – | – |
| CC(C)(OCc1cc(-c2cccc(OC3CC3)c2)n(Cc2ccccc2N2CCCC2)n1)C(=O)O [Example 202, 2-([5-(3-Cyclopropoxyphenyl)-1-[[2-(pyrrolidin-1-yl)phenyl]methyl]-1H-pyrazol-3-yl]methoxy)-2-methylpropanoic acid] | 2% | 32% | 32% | – | – |
| CC(C)Oc1ncc(-c2cc(COC(C)(C)C(=O)O)nn2Cc2ccccc2Cl)s1 [Example 133, 2-([1-[(2-Chlorophenyl)methyl]-5-[2-(propan-2-yloxy)-1,3-thiazol-5-yl]-1H-pyrazol-3-yl]methoxy)-2-methylpropanoic acid] | 91% | 97% | 90% | – | – |
| CCOc1ccccc1Cn1nc(COC(C)(C)C(=O)O)cc1-c1cc(Cl)cc(OC)c1 [Example 196, 2-([5-(3-Chloro-5-methoxyphenyl)-1-[(2-ethoxyphenyl)methyl]-1H-pyrazol-3-yl]methoxy)-2-methylpropanoic acid] | 32% | 62% | 33% | – | – |
| CC(C)(C)COc1cccc(-c2cc(COC(C)(C)C(=O)O)nn2-c2ccccc2Cl)c1 [Example 177, 2-([1-(2-chlorophenyl)-5-[3-(2,2-dimethylpropoxy)phenyl]-1H-pyrazol-3-yl]methoxy)-2-methylpropanoic acid] | 90% | 75% | 87% | – | – |
| COc1cc(-c2cc(COC(C)(C)C(=O)O)nn2Cc2ccccc2Cl)cs1 [Example 66, 2-([1-[(2-chlorophenyl)methyl]-5-(5-methoxythien-3-yl)-1H-pyrazol-3-yl]methoxy)-2-methylpropanoic acid] | – | 73% | 83% | – | – |
| CC[C@](C)(OCc1cc(-c2cccc(OC)c2)n(Cc2ccccc2Cl)n1)C(=O)O [Example 120, (2S)-2-([1-[(2-chlorophenyl)methyl]-5-(3-methoxyphenyl)-1H-pyrazol-3-yl]methoxy)-2-methylbutanoic Acid] | 44% | 81% | – | – | – |
| CCOc1ccccc1Cn1nc(COC(C)(C)C(=O)O)cc1-c1ccc2cnn(CC)c2c1 [Example 198, 2-([1-[(2-Ethoxyphenyl)methyl]-5-(1-ethyl-1H-indazol-6-yl)-1H-pyrazol-3-yl]methoxy)-2-methylpropanoic acid] | 82% | 80% | 84% | – | – |
| Cn1ncc2cccc(-n3nc(COC(C)(C)C(=O)O)cc3-c3cccc(OC4CCC4)c3)c21 [Example 166, 2-([5-(3-Cyclobutoxyphenyl)-1-(1-methyl-1H-indazol-7-yl)-1H-pyrazol-3-yl]methoxy)-2-methylpropanoic acid] | – | 94% | 82% | – | ∞ |
| CCOc1cccc(-n2nc(COC(C)(C)C(=O)O)cc2-c2cc(OC)cc(OC)c2)c1 [Example 243, 2-([5-(3,5-Dimethoxyphenyl)-1-(3-ethoxyphenyl)-1H-pyrazol-3-yl]-methoxy)-2-methylpropanoic acid] | 88% | 88% | 97% | – | – |
| CC(C)COc1cccc(-c2cc(COC(C)(C)C(=O)O)nn2Cc2ccccc2Cl)c1 [Example 27, 2-([1-[(2-Chlorophenyl)methyl]-5-(3-(2-methylpropoxy)phenyl)1H-pyrazol-3-yl]methoxy)-2-methylpropanoic acid] | – | 43% | 50% | – | – |
| CC(C)Oc1cccc(-c2cc(COC(C)(C)C(=O)O)nn2Cc2ccccc2Cl)c1 [Example 35, 2-([1-[(2-Chlorophenyl)methyl]-5-(3-isopropoxyphenyl)1H-pyrazol-3-yl]methoxy)-2-methylpropanoic acid] | – | 67% | 31% | – | – |
| CCC(C)(OCc1cc(-c2cccc(OC)c2)n(Cc2ccccc2Cl)n1)C(=O)O (stereo not drawn) [Example 68, 2-([1-[(2-Chlorophenyl)methyl]-5-(3-methoxyphenyl)-1H-pyrazol-3-yl]methoxy)-2-methylbutanoic acid] | – | 95% | 91% | – | – |
| COc1cccc(-c2c(C)c(COC(C)(C)C(=O)O)nn2Cc2ccccc2Cl)c1 [Example 54, 2-({1-[(2-Chlorophenyl)methyl]-5-(3-methoxyphenyl)-4-methyl-1H-pyrazol-3-yl}methoxy)-2-methylpropionic acid] | – | 59% | 95% | – | – |
| COc1ccc(-c2cc(COC(C)(C)C(=O)O)nn2Cc2ccccc2Cl)s1 [Example 64, 2-([1-[(2-Chlorophenyl)methyl]-5-(5-methoxythien-2-yl)-1H-pyrazol-3-yl]methoxy)-2-methylpropanoic acid] | – | 82% | 84% | – | – |
| COc1cccc(-c2cc(COC(C)(C)C(=O)O)nn2Cc2ccccc2N(C)C)c1 [Example 38, 2-([1-[[2-(Dimethylamino)phenyl]methyl]-5-(3-methoxyphenyl)1H-pyrazol-3-yl]methoxy)-2-methylpropanoic acid] | – | 56% | 61% | – | – |
| COc1cccc(-c2cc(COC(C)(C)C(=O)O)nn2Cc2ccccc2OC)c1 [Example 36, 2-([5-(3-Methoxyphenyl)-1-[(2-methoxyphenyl)methyl]1H-pyrazol-3-yl]methoxy)-2-methylpropanoic acid] | – | 85% | 99% | – | – |
